The record followed here is the supplement of paper PMC10627819.

Holding throughout (assay): Bliss interaction score (quartile over a dose matrix) (fitness difference); higher = more antagonism (negative = synergy)
In one assay the test system is B. subtilis 168. An outline of the steps:
(§1)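 The Bliss score is observed minus expected fitness under the product model, reported as quartiles over technical, biological and donor/recipient replicates. Fitness is the OD595 at entry into stationary phase divided by the plate's robust no-drug mean and capped at 1. Single-drug fitness was inferred from combination data.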

The test system of another assay is S. aureus DSM 20231. An outline of the steps: as §1
The next assay deals with S. aureus Newman. The method in brief:
as §1

Another assay relates to S. pneumoniae D39V. An outline of the steps: as §1
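Note: first quartile when negative (synergy) and third quartile when positive (antagonism).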

In the case of `CC[C@H]1OC(=O)[C@H](C)[C@@H](O[C@H]2C[C@@](C)(OC)[C@@H](O)[C@H](C)O2)[C@H](C)[C@@H](O[C@@H]2O[C@H](C)C[C@H](N(C)C)[C@H]2O)[C@](C)(O)C[C@@H](C)CN(C)[C@H](C)[C@@H](O)[C@]1(C)O` [Azithromycin] + C1=CC(=CC(=C1)Cl)NN=C(C#N)C#N [CCCP], the Bliss interaction score in the assay with B. subtilis 168 was -0.104; in the assay on S. aureus DSM 20231, -0.0316; in the assay with S. aureus Newman, -0.0482; in the assay with S. pneumoniae D39V it was -0.0621.

With `CC[C@H]1OC(=O)[C@H](C)[C@@H](O[C@H]2C[C@@](C)(OC)[C@@H](O)[C@H](C)O2)[C@H](C)[C@@H](O[C@@H]2O[C@H](C)C[C@H](N(C)C)[C@H]2O)[C@](C)(O)C[C@@H](C)CN(C)[C@H](C)[C@@H](O)[C@]1(C)O` [Azithromycin] + CC1(C)S[C@@H]2[C@H](NC(=O)Cc3ccccc3)C(=O)N2[C@H]1C(=O)O [PenicillinG], the Bliss interaction score with B. subtilis 168 was 0.0629; in the assay on S. aureus DSM 20231, -0.0514; in the assay on S. aureus Newman, -0.087; in the assay on S. pneumoniae D39V, 0.0489.

On to `CC[C@H]1OC(=O)[C@H](C)[C@@H](O[C@H]2C[C@@](C)(OC)[C@@H](O)[C@H](C)O2)[C@H](C)[C@@H](O[C@@H]2O[C@H](C)C[C@H](N(C)C)[C@H]2O)[C@](C)(O)C[C@@H](C)CN(C)[C@H](C)[C@@H](O)[C@]1(C)O` [Azithromycin] + CC(=O)O[C@H]1C[C@@]2(C)[C@@H](C[C@@H](O)[C@H]3[C@@]4(C)CC[C@@H](O)[C@@H](C)[C@@H]4CC[C@@]32C)/C1=C(\CCC=C(C)C)C(=O)O [Fusidic acid], for which the Bliss interaction score with B. subtilis 168 was -0.119; with S. aureus DSM 20231, -0.0342; in the assay on S. aureus Newman it was 0.0362; in the assay on S. pneumoniae D39V it was -0.0761.

With `CC[C@H]1OC(=O)[C@H](C)[C@@H](O[C@H]2C[C@@](C)(OC)[C@@H](O)[C@H](C)O2)[C@H](C)[C@@H](O[C@@H]2O[C@H](C)C[C@H](N(C)C)[C@H]2O)[C@](C)(O)C[C@@H](C)CN(C)[C@H](C)[C@@H](O)[C@]1(C)O` [Azithromycin] + CC[C@H]1OC(=O)[C@H](C)C(=O)[C@H](C)[C@@H](O[C@@H]2O[C@H](C)C[C@H](N(C)C)[C@H]2O)[C@](C)(OC)C[C@@H](C)C(=O)[C@H](C)[C@H]2N(CCCCn3cnc(-c4cccnc4)c3)C(=O)O[C@]12C [Telithromycin], the Bliss interaction score is 0.0342 in the assay on B. subtilis 168, -0.0311 in the assay with S. aureus DSM 20231, -0.0389 with S. aureus Newman and 0.0272 in the assay on S. pneumoniae D39V.

In the case of `CC[C@H]1OC(=O)[C@H](C)[C@@H](O[C@H]2C[C@@](C)(OC)[C@@H](O)[C@H](C)O2)[C@H](C)[C@@H](O[C@@H]2O[C@H](C)C[C@H](N(C)C)[C@H]2O)[C@](C)(O)C[C@@H](C)CN(C)[C@H](C)[C@@H](O)[C@]1(C)O` [Azithromycin] + CC[C@H]1OC(=O)[C@H](C)[C@@H](O[C@H]2C[C@@](C)(OC)[C@@H](O)[C@H](C)O2)[C@H](C)[C@@H](O[C@@H]2O[C@H](C)C[C@H](N(C)C)[C@H]2O)[C@](C)(O)C[C@@H](C)C(=O)[C@H](C)[C@@H](O)[C@]1(C)O [Erythromycin], the Bliss interaction score was -0.0754 in the assay on B. subtilis 168, -0.056 with S. aureus DSM 20231, -0.0668 with S. aureus Newman and 0.0539 in the assay on S. pneumoniae D39V.

Consider `CC[C@H]1OC(=O)[C@H](C)[C@@H](O[C@H]2C[C@@](C)(OC)[C@@H](O)[C@H](C)O2)[C@H](C)[C@@H](O[C@@H]2O[C@H](C)C[C@H](N(C)C)[C@H]2O)[C@](C)(O)C[C@@H](C)CN(C)[C@H](C)[C@@H](O)[C@]1(C)O` [Azithromycin] + CC[C@H]1OC(=O)[C@H](C)[C@@H](O[C@H]2C[C@@](C)(OC)[C@@H](O)[C@H](C)O2)[C@H](C)[C@@H](O[C@@H]2O[C@H](C)C[C@H](N(C)C)[C@H]2O)[C@](C)(OC)C[C@@H](C)C(=O)[C@H](C)[C@@H](O)[C@]1(C)O [Clarithromycin], for which the Bliss interaction score is -0.0578 in the assay with B. subtilis 168, -0.107 in the assay with S. aureus DSM 20231, -0.0536 with S. aureus Newman and -0.0473 with S. pneumoniae D39V.

Turning to `CC[C@H]1OC(=O)[C@H](C)[C@@H](O[C@H]2C[C@@](C)(OC)[C@@H](O)[C@H](C)O2)[C@H](C)[C@@H](O[C@@H]2O[C@H](C)C[C@H](N(C)C)[C@H]2O)[C@](C)(O)C[C@@H](C)CN(C)[C@H](C)[C@@H](O)[C@]1(C)O` [Azithromycin] + CN(C)[C@@H]1C(O)=C(C(N)=O)C(=O)[C@@]2(O)C(O)=C3C(=O)c4c(O)ccc(Cl)c4[C@@](C)(O)[C@H]3C[C@@H]12 [Clortetracycline], the Bliss interaction score is -0.344 in the assay on B. subtilis 168, -0.243 in the assay with S. aureus DSM 20231, -0.192 in the assay with S. aureus Newman and -0.084 in the assay on S. pneumoniae D39V.

Consider `CC[C@H]1OC(=O)[C@H](C)[C@@H](O[C@H]2C[C@@](C)(OC)[C@@H](O)[C@H](C)O2)[C@H](C)[C@@H](O[C@@H]2O[C@H](C)C[C@H](N(C)C)[C@H]2O)[C@](C)(O)C[C@@H](C)CN(C)[C@H](C)[C@@H](O)[C@]1(C)O` [Azithromycin] + CN[C@H](CC(C)C)C(=O)N[C@H]1C(=O)N[C@@H](CC(N)=O)C(=O)N[C@H]2C(=O)N[C@H]3C(=O)N[C@H](C(=O)N[C@H](C(=O)O)c4cc(O)cc(O)c4-c4cc3ccc4O)[C@H](O[C@H]3C[C@](C)(N)[C@@H](O)[C@H](C)O3)c3ccc(c(Cl)c3)Oc3cc2cc(c3O[C@@H]2O[C@H](CO)[C@@H](O)[C@H](O)[C@H]2O[C@H]2C[C@](C)(NCc3ccc(-c4ccc(Cl)cc4)cc3)[C@@H](O)[C@H](C)O2)Oc2ccc(cc2Cl)[C@H]1O [Oritavancin], for which the Bliss interaction score was 0.0325 in the assay with B. subtilis 168, -0.0405 with S. aureus DSM 20231, -0.0766 in the assay with S. aureus Newman and 0.0492 in the assay on S. pneumoniae D39V.
